Test results taken from patent US8956996B2, “Method for reducing nitrous oxide emission from soils” (BASF SE, priority 2009, dated 2015).

How the values were obtained:
N2O emission from soil [1] = assay: Loss of nitrate and ammonium nitrogen in LiHof soil, pyraclostrobin and boscalid (Example 3); conditions: for Effect on N2O emission from soil (in words): LiHof soil, fertilizer applied 1 day after compound (A); for Loss of NO3-N + NH4-N in mg N/10 g soil in 48 h: soil type LiHof, pyraclostrobin 250 g/ha, boscalid 2.33 g/L, fertilizer 1 day after compound (A), UTC 0.52
N2O emission from soils [2] = assay: Greenhouse trial: N2O emission from potted field soil planted with summer wheat (Example 4); format: in vivo; conditions: for Mean mg N2O-N/m^2: 4 weeks
N2O emission from soils [3] = assay: N2O emission from potted corn after pyraclostrobin seed treatment, NPK fertilizer applied 10 days later (Example 1); format: in vivo, Zea mays
N2O emission from soil [4] = assay: Loss of nitrate and ammonium nitrogen in soil samples, Conway method, as indirect measure of N2O produced (Example 2); conditions: for Loss of NO3-N + NH4-N in mg N/10 g soil in 48 h: fertilizer 1 day after compound (A)

Compound: O=C(Nc1ccccc1-c1ccc(Cl)cc1)c1cccnc1Cl [Boscalid, boscalid]
- Effect on N2O emission from soil (in words) (N2O emission from soil [1]): significantly reduced the N2O emission from soil
- Loss of NO3-N + NH4-N in mg N/10 g soil in 48 h (N2O emission from soil [1]): 0.35 mg N/10 g soil

Compound: COC(=O)N(OC)c1ccccc1COc1ccn(-c2ccc(Cl)cc2)n1 [Pyraclostrobin, pyraclostrobin]
- Effect on N2O emission from soil (in words) (N2O emission from soil [1]): significantly reduced the N2O emission from soil
- Loss of NO3-N + NH4-N in mg N/10 g soil in 48 h (N2O emission from soil [1]): 0.09 mg N/10 g soil
- Effect on N2O emission from soils (in words) (N2O emission from soils [2]; combined application of compound (A) and compound (B)): does not result in a reduction of N2O emission from soils
- Mean mg N2O-N/m^2 (N2O emission from soils [2]; pyraclostrobin 250 g/ha 8 days before the application of the fertilizer (ammonium nitrate 100 kg/ha)): 100.9 mg N2O-N/m^2
- Mean mg N2O-N/m^2 (N2O emission from soils [2]; pyraclostrobin 250 g/ha together with the application of the fertilizer (ammonium nitrate 100 kg/ha)): 314.9 mg N2O-N/m^2
- Effect on N2O emission from soils (in words) (N2O emission from soils [2]; pyraclostrobin and ammonium nitrate with time lag of 8 days, compared to fertilizer alone or joint application): significantly reduced
- N2O increase over ambient (N2O emission from soils [3]; seed treatment 5 g/100 kg seeds, 0.3% NPK fertilizer HaKaPhos Blue applied on day 10, peak value on day 2 of three day measurement, N = 14, UTC 190): 107 ppbv/h
- Effect on N2O emission from soils (in words) (N2O emission from soils [3]; seed treatment, fertilizer applied 10 days after compound (A)): significantly reduce the N2O emission from soils
- Loss of NO3-N + NH4-N in mg N/10 g soil in 48 h (N2O emission from soil [4]; soil type LiHof, UTC 0.54): 0.06 mg N/10 g soil
- Loss of NO3-N + NH4-N in mg N/10 g soil in 48 h (N2O emission from soil [4]; soil type Sp 2.1, UTC 0.16): 0.03 mg N/10 g soil
- Loss of NO3-N + NH4-N in mg N/10 g soil in 48 h (N2O emission from soil [4]; soil type Sp 2.2, UTC 0.19): 0.02 mg N/10 g soil
- Loss of NO3-N + NH4-N in mg N/10 g soil in 48 h (N2O emission from soil [4]; soil type Sp 2.3, UTC 0.38): 0.18 mg N/10 g soil
- Loss of NO3-N + NH4-N in mg N/10 g soil in 48 h (N2O emission from soil [4]; soil type Sp 2.4, UTC 0.37): 0.13 mg N/10 g soil
- Loss of NO3-N + NH4-N in mg N/10 g soil in 48 h (N2O emission from soil [4]; soil type Sp 5M, UTC 0.27): 0.10 mg N/10 g soil
- Loss of NO3-N + NH4-N in mg N/10 g soil in 48 h (N2O emission from soil [4]; soil type Sp 6S, UTC 0.48): 0.21 mg N/10 g soil
- Effect on N2O emission from soil (in words) (N2O emission from soil [4]; various types of soil, fertilizer applied 1 day after compound (A)): significantly reduce the N2O emission from soil
